Test results published in patent US5594024A, “Centrally actig substituted phenylazacycloalkanes” (priority 1995, dated 1997).
Like-named read-outs stand apart in the source and are kept apart here.

Columns and labels:
5-HT receptor [1] = experiment: 5-HT metabolism (5-HIAA levels) in habituated rats; type: in vivo, rat (male Sprague-Dawley)
Protocol: (§1) Footnotes Table 3. The rats were habituated to the motility meters 60 min
SEM. The rats were immediately killed after the activity session, striata
(§2) and limbic levels of DOPAC and 5HIAA were measured by means of HPLCEC. *p
(§3) In the experiments with habituated rats no NSD was administered and the animals were killed one hour after drug administration. […] The levels were expressed as % of controls (DOPAC and 5-HIAA see Table 3). The in vivo brain microdialysis experiments were performed in conscious rats as described by Waters et al., Eur. J. Pharm., 187, 425-34 (1990).
Injection volumes were 5 mL/kg. […]

habituated rats = experiment: Locomotor activity and behavior in habituated rats; type: in vivo, rat (male Sprague-Dawley); details: habituated rats
Protocol: as §1
prior to the activity session.
(§4) Injection volumes were 5 mL/kg.
Locomotor activity was measured in rats which were habituated 60 minutes to the activity meters before drug injection. The activity was measured for the subsequent 60 minutes and expressed as % of controls (means ±SEM, n=4).

DA receptor [2] = experiment: DA metabolism (DOPAC, HVA levels) in habituated rats; type: in vivo, rat (male Sprague-Dawley); details: Rattus norvegicus, 1 h; for response vs control in vivo at 6.2 µmol/kg: 6.2 μmol/kg sc; for response vs control in vivo at 25 µmol/kg: 25 μmol/kg sc
Protocol: as §1
The rats were immediately killed after the activity session, striata
as §2, §3, §4
After the activity session the rats were killed and the brain levels of HVA and DOPAC were measured (data are expressed as means ±SEM).

5-HT1A = molecular target: T1, 5-HT1A (Rattus norvegicus, UniProt P19327); experiment: 5-HT1A radioligand binding ([3H]-8-OH-DPAT); parameters: species or system rat (male Sprague-Dawley); details: [3H]-8-OH-DPAT, rat cortex; read-out: in vitro binding IC50, 5HT1A
T1 construct: the whole brain with the exception of the brainstem and cerebellum was rapidly removed; from tissue
T1 sequence (P19327 1-422): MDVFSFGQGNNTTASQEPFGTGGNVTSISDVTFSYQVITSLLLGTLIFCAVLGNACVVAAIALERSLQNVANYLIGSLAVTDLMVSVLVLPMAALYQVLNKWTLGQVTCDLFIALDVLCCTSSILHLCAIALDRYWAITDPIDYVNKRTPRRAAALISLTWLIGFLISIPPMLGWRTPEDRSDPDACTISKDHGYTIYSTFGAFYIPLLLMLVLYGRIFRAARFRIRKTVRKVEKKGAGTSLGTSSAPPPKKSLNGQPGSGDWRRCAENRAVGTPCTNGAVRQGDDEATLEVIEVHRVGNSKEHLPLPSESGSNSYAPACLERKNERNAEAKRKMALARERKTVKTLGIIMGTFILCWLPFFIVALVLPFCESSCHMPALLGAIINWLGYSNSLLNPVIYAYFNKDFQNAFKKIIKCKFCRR
Protocol: ^b Serotonin 5HT1A ([^3 H]-8OH-DPAT, agonist) rat cortex.
5-HT1A radioligand binding. Male Sprague-Dawley rats (160-225 g) were killed by decapitation and the whole brain with the exception of the brainstem and cerebellum was rapidly removed, weighed and chilled in ice-cold 0.9% NaCl. Each brain was homogenized (Ultra-Turrax, 20 s) in 10 mL ice-cold 50 mM Tris buffer (pH 8.0 at 25° C.) containing 120 mM NaCl, 4 mM CaCl2 and 4 mM MgCl2 and centrifuged at 20,000 g's at 4° C. for 10 minutes. Pellets were resuspended in 10 mL fresh buffer and preincubated for 10 minutes in a 37° C. waterbath and then recentrifuged. Final pellets were homogenized in 100 volumes (w/v) of Tris buffer (as described above) containing 10 μM pargyline. The incubation tubes were kept on ice in triplicates and received 100 μL drug solution in water (or water for total binding) and 1000 μL membrane suspension (corresponds to 10 mg original tissue). The binding experiment was initiated by addition of 100 μL of (3H)-8-OH-DPAT (specific activity 143-158 Ci/mmol) in ascorbic acid (the final incubation concentration was 1 nM (3H)-8-OH-DPAT in 0.1% ascorbic acid). After incubation for 15 minutes at 37° C. the reaction was terminated by separation of the free radioligand from bound by rapid vacuum filtration using a cell harvester equipment (O. M. Teknik, Denmark). The tubes were rinsed with 4 mL and the filters (Whatman GF/F 25 mm) were washed twice with 4 mL ice-cold 0.9% NaCl.
The radioactivity of the filters was measured in a liquid scintillation counter (efficiency 41%) in 5 mL Picofluor®. Specific binding (70-75% of total binding) was defined as the radioactivity displaced by 10 μM 5-HT. IC50 values were calculated by semi-log plot and linear regression analysis.

D2 receptors = molecular target: T2, D2 receptors (Rattus norvegicus, UniProt P61169); experiment: D2 antagonist binding ([3H]-spiperone), rat striatum; details: [3H]-spiperone, rat striatum; read-out: in vitro binding IC50, D2 -spip
T2 construct: Preparation of rat striatal membranes for (3H)-spiperone; from tissue; host or cells: rat striatum (striatal membranes)
T2 sequence (P61169 whole entry): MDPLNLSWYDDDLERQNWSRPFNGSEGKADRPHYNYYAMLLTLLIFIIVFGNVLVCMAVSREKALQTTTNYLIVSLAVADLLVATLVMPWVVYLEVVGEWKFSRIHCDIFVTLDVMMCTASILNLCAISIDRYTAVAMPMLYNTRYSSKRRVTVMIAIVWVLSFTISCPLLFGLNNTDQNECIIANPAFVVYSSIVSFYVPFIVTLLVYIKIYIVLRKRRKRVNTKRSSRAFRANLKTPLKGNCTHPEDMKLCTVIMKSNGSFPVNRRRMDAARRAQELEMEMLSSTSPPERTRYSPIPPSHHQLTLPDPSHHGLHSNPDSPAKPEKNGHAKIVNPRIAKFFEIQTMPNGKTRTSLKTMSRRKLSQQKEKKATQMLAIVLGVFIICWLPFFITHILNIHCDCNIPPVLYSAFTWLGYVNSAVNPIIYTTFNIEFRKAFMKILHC
Protocol: D2 antagonist binding. Preparation of rat striatal membranes for (3H)-spiperone (specific activity 21-24 Ci/mmol) binding was carried out in a similar manner as described for D1-binding, Hyttel et al., J. Neural. Transm., 68, 171 (1987).
IC50 values were calculated by semi-log plot and linear regression analysis.

non-pretreated rats = experiment: Locomotor activity and gross behavior in non-habituated (non-pretreated) rats; details: 100 sc, non-pretreated rats; for Motor Act.: 30 min
5-HT receptor [3] = experiment: 5-HTP accumulation (5-HT synthesis rate) in non-pretreated rats after NSD 1015; type: in vivo, rat (male Sprague-Dawley); details: 100 sc
Protocol: observations are commented to the right. After the session the rats were
accumulation in the NErich cortical regions and 5HTP in the limbic
as §4

DA receptor [4] = experiment: DOPA accumulation (DA synthesis rate) in non-pretreated rats after NSD 1015; details: 100 sc
[5] = system: S-(-)-34-induced hypermotility; experiment: Blockade of S-(-)-34-induced hypermotility in habituated rats; type: in vivo, rat; details: for effect on S-(-)-34-induced hypermotility: habituated rats, S-(-)-34 50 μmol/kg s.c.
Protocol: It was shown that S-(-)-34-induced hypermotility in habituated rats is blocked by haloperidol, raclopride, reserpine and alpha-methyl-para tyrosine. […] The test compounds were administered consecutively at the same time.
The catecholamine synthesis inhibitor alpha-methyl-para-tyrosine (Sigma, alpha-MT;100 mg/kg, i.p.) was administered 60 minutes before […] ([…], s.c.).

[6] = system: d-amphetamine-induced hyperactivity; experiment: d-Amphetamine-induced hyperactivity in habituated rats; type: in vivo, rat; details: d-amphetamine 5.0 mg/kg, sc
[7] = Rattus norvegicus, 1 h, 100 μmol/kg sc, 60 min, read-out: Motor Activity
[8] = 100 μmol/kg sc, habituated rats, read-out: DOPAC limbic
[9] = 100 μmol/kg sc, habituated rats, read-out: DOPAC striatum
[10] = habituated rats, read-out: DOPAC limbic
[11] = habituated rats, read-out: DOPAC striatum

Row | SMILES | 5-HIAA limbic (5-HT receptor [1]; 100 μmol/kg sc) | Behavioral observations (habituated rats; 100 μmol/kg sc) | response vs control in vivo at 100 µmol/kg (habituated rats; [7]) | response vs control in vivo at 100 µmol/kg (DA receptor [2]; [8]) | response vs control in vivo at 100 µmol/kg (DA receptor [2]; [9]) | IC50 (5-HT1A) | IC50 (D2 receptors) | effect on S-(-)-34-induced hypermotility [5] | other results
1 | C=CCN1CCC[C@@H](c2cccc(OS(=O)(=O)C(F)(F)F)c2)C1 [Compound S-17, S-3-((3-(Trifluoromethyl)sulfonyl)oxyphenyl-N-allyl)piperidine] | 93 ± 6 % of saline treated controls | Activation | 195 ± 13% | 159 ± 18% | 222 ± 12% | 4200 nM | 28 µM |  | 
2 | CCCN1CCC[C@@H](c2cccc(OS(C)(=O)=O)c2)C1 [Compound S-22, S-3-((3-Methylsulfonyl)oxyphenyl-N-n-propyl)piperidine] | 118 ± 11 % of saline treated controls | Activation | 550 ± 50% | 209 ± 11% | 276 ± 12% | 1700 nM | 25 µM |  | 
3 | C=Cc1cccc([C@@H]2CCCN(CCC)C2)c1 [Compound S-41, S-3-(3-Vinylphenyl-N-n-propyl)piperidine] | 92 ± 14 % of saline treated controls | Activation | 529 ± 204% |  |  | 460 nM | 3.5 µM |  | response vs control in vivo at 100 µmol/kg (DA receptor [2]; sc, read-out: DOPAC limbic): 136 ± 15%; response vs control in vivo at 100 µmol/kg (DA receptor [2]; sc, read-out: DOPAC striatum): 134 ± 13%
4 | CN1CCC[C@@H](c2cccc(OS(=O)(=O)C(F)(F)F)c2)C1 [S-(+)-13, S-(+)-3-((3-(Trifluoromethyl)sulfonyl)oxyphenyl-N-methyl)-piperidine] | 109 ± 2 % of saline treated controls | No change | 135 ± 14% | 138 ± 10% | 172 ± 11% | 2800 nM | 71 µM |  | 
5 | CCN1CCC[C@@H](c2cccc(OS(=O)(=O)C(F)(F)F)c2)C1 [S-(-)-14, S-(-)-3-((3-(Trifluoromethyl)sulfonyl)oxyphenyl-N-ethyl)-piperidine] | 98 ± 33 % of saline treated controls | Activation | 404 ± 205% | 223 ± 39% | 293 ± 29% | 1300 nM | 7.1 µM |  | Gross Behavioral Observations (non-pretreated rats): No change; Motor Act. (non-pretreated rats): 103 ± 19 % of saline controls; 5-HTP acc Limbic Region (5-HT receptor [3]): 76 ± 9 % of saline controls; DOPA acc Cortex (DA receptor [4]): 80 ± 4 % of saline controls; DOPA acc Stratium (DA receptor [4]): 286 ± 33 % of saline controls
6 | CCCN1CCC[C@@H](c2cccc(OS(=O)(=O)C(F)(F)F)c2)C1 [S-(-)-15, S-(-)-3-((3-(Trifluoromethyl)sulfonyl)oxyphenyl-N-n-propyl)-piperidine] | 140 ± 11 % of saline treated controls | Activation | 445 ± 131% | 196 ± 16% | 217 ± 3% | 2300 nM | 1.6 µM |  | 5-HIAA limbic (5-HT receptor [1]; 6.2 μmol/kg sc): 139 ± 9 % of saline treated controls; 5-HIAA limbic (5-HT receptor [1]; 25 μmol/kg sc): 126 ± 5 % of saline treated controls; Behavioral observations (habituated rats; 6.2 μmol/kg sc): No change; Motor Activity (habituated rats; 6.2 μmol/kg sc, 60 min): 91 ± 94 % of saline treated controls; Behavioral observations (habituated rats; 25 μmol/kg sc): No change; response vs control in vivo at 25 µmol/kg (habituated rats; Rattus norvegicus, 1 h, 25 μmol/kg sc, 60 min, read-out: Motor Activity): 128 ± 33%; response vs control in vivo at 6.2 µmol/kg (DA receptor [2]; [10]): 134 ± 10%; response vs control in vivo at 6.2 µmol/kg (DA receptor [2]; [11]): 118 ± 10%; response vs control in vivo at 25 µmol/kg (DA receptor [2]; [10]): 145 ± 11%; response vs control in vivo at 25 µmol/kg (DA receptor [2]; [11]): 175 ± 8%
7 | CCCCN1CCC[C@@H](c2cccc(OS(=O)(=O)C(F)(F)F)c2)C1 [S-(-)-16, S-(-)-3-((3-(Trifluoromethyl)sulfonyl)oxyphenyl-N-n-butyl)-piperidine] | 109 ± 4 % of saline treated controls | Activation | 345 ± 39% | 186 ± 2% | 192 ± 4% | 1300 nM | 1.3 µM |  | Gross Behavioral Observations (non-pretreated rats): No change; Motor Act. (non-pretreated rats): 116 ± 21 % of saline controls; 5-HTP acc Limbic Region (5-HT receptor [3]): 82 ± 5 % of saline controls; DOPA acc Cortex (DA receptor [4]): 89 ± 9 % of saline controls; DOPA acc Stratium (DA receptor [4]): 234 ± 10 % of saline controls
8 | CC(N)(Cc1ccc(O)cc1)C(=O)O (stereo not drawn) [alpha-MT, alpha-methyl-para-tyrosine] |  |  |  |  |  |  |  | blocked | motor activity, compound alone ([5]; 100 mg/kg, i.p.): did not affect the motor activity; effect on locomotor stimulation produced by S-(-)-34 ([5]; alpha-MT 100 mg/kg, i.p., 60 minutes before): partially inhibited the locomotor stimulation
9 | C[C@H](N)Cc1ccccc1 [d-amphetamine, reference compound] |  |  |  |  |  |  |  |  | activity of habituated rats, d-amphetamine alone [6]: 871±68 % of NaCl controls
10 | O=C(CCCN1CCC(O)(c2ccc(Cl)cc2)CC1)c1ccc(F)cc1 [haloperidol] |  |  |  |  |  |  |  | blocked | 
11 | CCN1CCC[C@H]1CNC(=O)c1c(O)c(Cl)cc(Cl)c1OC [raclopride] |  |  |  |  |  |  |  | blocked | 
12 | COC(=O)[C@H]1[C@H]2C[C@@H]3c4[nH]c5cc(OC)ccc5c4CCN3C[C@H]2C[C@@H](OC(=O)c2cc(OC)c(OC)c(OC)c2)[C@@H]1OC [reserpine] |  |  |  |  |  |  |  | blocked | effect on locomotor stimulation produced by S-(-)-34 ([5]; reserpine 5 mg/kg, 18 h before, S-(-)-34 50 μmol/kg, sc): completely prevented the locomotor stimulation
